Read-outs that look alike come from different tables or passages of the source.
How the values were obtained:
[1] = system: P. falciparum male gametocytes; assay: P. falciparum Dual Gamete Formation Assay (PfDGFA), male readout (exflagellation); format: cell-based, Plasmodium falciparum NF54; conditions: for Selectivity Ratio M: HepG2 Tox50 versus male IC50; for Average inhibition male (%) / % inhibition male (individual replicates) R1 / % inhibition male (individual replicates) R3 / % inhibition male (individual replicates) R4 / inhibition at 2 µM: 24h preincubation with gametocytes; for IC50: PfDGFA, 24 h incubation with gametocytes before induction, exflagellation readout, read-out: Male IC50; for HitlevelM: number of replicates with >50% inhibition in the male readout
Method in brief: (§1)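 Read-outs are automated image counts of exflagellation centres (brightfield, 10 frames over 1 s) and Pfs25-positive female gametes (Cy3 fluorescence).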

HepG2 cells = assay: HepG2 cytotoxicity counter-screen; conditions: cytotoxic activity against HepG2 cells
[2] = system: P. falciparum female gametocytes; assay: P. falciparum Dual Gamete Formation Assay (PfDGFA), female readout (Pfs25-positive female gametes); format: cell-based, Plasmodium falciparum NF54; conditions: for Selectivity ratio F: HepG2 Tox50 versus female IC50; for Average inhibition female (%) / % inhibition female (individual replicates) R1 / % inhibition female (individual replicates) R3 / % inhibition female (individual replicates) R4 / inhibition at 2 µM: 24h preincubation with gametocytes; for IC50: PfDGFA, 24 h incubation with gametocytes before induction, female gamete readout, read-out: Female IC50; for HitlevelF: number of replicates with >50% inhibition in the female readout
Method in brief: as §1

[3] = PfDGFA at 2µM, average of replicates
[4] = Plasmodium falciparum, 2µM, average of replicates, read-out: Average inhibition male (%)
[5] = Plasmodium falciparum, 2µM, replicate R1, read-out: % inhibition male (individual replicates) R1
[6] = Plasmodium falciparum, 2µM, replicate R2, read-out: % inhibition male (individual replicates) R2
[7] = Plasmodium falciparum, 2µM, replicate R4, read-out: % inhibition male (individual replicates) R4
[8] = Plasmodium falciparum, 2µM, average of replicates, read-out: Average inhibition female (%)
[9] = Plasmodium falciparum, 2µM, replicate R1, read-out: % inhibition female (individual replicates) R1
[10] = Plasmodium falciparum, 2µM, replicate R2, read-out: % inhibition female (individual replicates) R2
[11] = Plasmodium falciparum, 2µM, replicate R3, read-out: % inhibition female (individual replicates) R3
[12] = Plasmodium falciparum, 2µM, replicate R4, read-out: % inhibition female (individual replicates) R4

SMILES | Selectivity Ratio M [1] | Average inhibition male (%) [1, 3] | % inhibition male (individual replicates) R1 ([1]; PfDGFA at 2µM, replicate R1) | % inhibition male (individual replicates) R3 ([1]; PfDGFA at 2µM, replicate R3) | % inhibition male (individual replicates) R4 ([1]; PfDGFA at 2µM, replicate R4) | IC50 [1] | HitlevelM ([1]; 2µM) | Tox50 (HepG2 cells) | Selectivity ratio F [2] | Average inhibition female (%) [2, 3] | % inhibition female (individual replicates) R1 ([2]; PfDGFA at 2µM, replicate R1) | IC50 [2] | Average inhibition male (%) ([1]; 2µM, average of replicates) | % inhibition male (individual replicates) R1 ([1]; 2µM, replicate R1) | % inhibition male (individual replicates) R3 ([1]; 2µM, replicate R3) | % inhibition male (individual replicates) R4 ([1]; 2µM, replicate R4) | Average inhibition female (%) ([2]; 2µM, average of replicates) | % inhibition female (individual replicates) R1 ([2]; 2µM, replicate R1) | % inhibition female (individual replicates) R3 ([2]; 2µM, replicate R3) | % inhibition female (individual replicates) R4 ([2]; 2µM, replicate R4) | also measured
CCCCOc1c(CCNCCCCNCCc2cc(OC)c3ccccc3c2OCCCC)cc(OC)c2ccccc12.CS(=O)(=O)O [TCMDC-137848] | 2.01 | 82.6% | 89.8% | 50.4% | 92.9% | 1570 nM | 4 | 3.16 µM | 2.45 | 42.4% | 32.5% | 1290 nM | – | – | – | – | – | – | – | – | % inhibition female (individual replicates) R3 ([2]; PfDGFA at 2µM, replicate R3): 23.0%; % inhibition female (individual replicates) R4 ([2]; PfDGFA at 2µM, replicate R4): 45.3%; HitlevelF ([2]; 2µM): 1
CS(=O)(=O)O.FC(F)(F)COc1ccc(CNCCCCCCNCc2ccc(OCC(F)(F)F)c3ccccc23)c2ccccc12 [TCMDC-137853] | 4.06 | – | – | – | – | 310 nM | – | 1.26 µM | 2.44 | – | – | 520 nM | 98.2% | 97.9% | 96.8% | 101.6% | 50.4% | 38.4% | 35.3% | 42.3% | –
COc1c(CCNCCCCNCCc2cc(Cl)c3ccccc3c2OC)cc(Cl)c2ccccc12.CS(=O)(=O)O [TCMDC-137869] | 3.25 | – | – | – | – | 920 nM | – | 2.99 µM | 2.39 | – | – | 1250 nM | 96.4% | 99.7% | 90.8% | 101.9% | 93.4% | 93.5% | 100.2% | 88.2% | –
Oc1cccc(CNCCCN(Cc2ccccc2)c2ccccc2)c1 [TCMDC-137875] | 13 | – | – | – | – | – | – | 13.84 µM | 1.79 | – | – | – | – | – | – | – | – | – | – | – | inhibition at 2 µM [1, 4]: 97.7%; inhibition at 2 µM [1, 5]: 96.8%; inhibition at 2 µM [1, 6]: 93.7%; inhibition at 2 µM [1, 7]: 103%; IC50 ([1]; Plasmodium falciparum): 1060 nM; inhibition at 2 µM [2, 8]: 33.5%; inhibition at 2 µM [2, 9]: 43.5%; inhibition at 2 µM [2, 10]: 32%; inhibition at 2 µM [2, 11]: 28.3%; inhibition at 2 µM [2, 12]: 30.2%; IC50 ([2]; Plasmodium falciparum): 7740 nM
CC(=NNC(=S)NCCc1ccccn1)c1ccccn1 [TCMDC-137895] | 2.92 | – | – | – | – | 390 nM | – | 1.15 µM | 2.26 | – | – | 510 nM | 93.4% | 86.5% | 96.2% | 94.6% | 79.8% | 58.7% | 98.6% | 74.6% | –
CN(CCCNCc1cccc2ccccc12)CCCNCc1cccc2ccccc12.Cl [TCMDC-137905] | 6.46 | 87.5% | 87.4% | 74.8% | 93.6% | 920 nM | 4 | 5.94 µM | 4.08 | 42.5% | 35.1% | 1460 nM | – | – | – | – | – | – | – | – | % inhibition female (individual replicates) R3 ([2]; PfDGFA at 2µM, replicate R3): 30.8%; % inhibition female (individual replicates) R4 ([2]; PfDGFA at 2µM, replicate R4): 35.6%; HitlevelF ([2]; 2µM): 1
COCCCNC(=S)NN=C(C)c1ccccn1 [TCMDC-137907] | 1.14 | – | – | – | – | – | – | 0.48 µM | 1.2 | – | – | – | – | – | – | – | – | – | – | – | inhibition at 2 µM [1, 4]: 100%; inhibition at 2 µM [1, 5]: 99.7%; inhibition at 2 µM [1, 6]: 100%; inhibition at 2 µM ([1]; Plasmodium falciparum, 2µM, replicate R3, read-out: % inhibition male (individual replicates) R3): 97.8%; inhibition at 2 µM [1, 7]: 103%; IC50 ([1]; Plasmodium falciparum): 420 nM; inhibition at 2 µM [2, 8]: 95.6%; inhibition at 2 µM [2, 9]: 95.7%; inhibition at 2 µM [2, 10]: 91.5%; inhibition at 2 µM [2, 11]: 100%; inhibition at 2 µM [2, 12]: 94.6%; IC50 ([2]; Plasmodium falciparum): 400 nM
CN(CCCNCc1ccc2ccccc2c1)CCCNCc1ccc2ccccc2c1.Cl [TCMDC-137908] | 8.05 | – | – | – | – | 510 nM | – | 4.12 µM | 3.92 | – | – | 1050 nM | 96.1% | 95.1% | 92.7% | 98.2% | 40.6% | 36.9% | 42.1% | 30.7% | –
CCOc1cc(CNCCCCCCNCc2cc(OCC)c(OCC)c3ccccc23)c2ccccc2c1OCC.CS(=O)(=O)O [TCMDC-137939] | 1.34 | 69.9% | 72.9% | 51.6% | 76.9% | 1510 nM | 4 | 2.02 µM | 0.94 | 45.9% | 31.3% | 2160 nM | – | – | – | – | – | – | – | – | % inhibition female (individual replicates) R3 ([2]; PfDGFA at 2µM, replicate R3): 12.7%; % inhibition female (individual replicates) R4 ([2]; PfDGFA at 2µM, replicate R4): 67.3%; HitlevelF ([2]; 2µM): 2
COc1cc2ccccc2cc1CCNCCCCNCCc1cc2ccccc2cc1OC.CS(=O)(=O)O [TCMDC-137944] | 3.14 | – | – | – | – | 1260 nM | – | 3.94 µM | 1.14 | – | – | 3470 nM | 96.6% | 97.3% | 93.0% | 97.4% | 77.7% | 77.0% | 80.9% | 77.1% | –
CCCOc1ccc(CCNCCCCNCCc2ccc(OCCC)c3ccccc23)c2ccccc12.CS(=O)(=O)O [TCMDC-137952] | 3.16 | – | – | – | – | 940 nM | – | 2.96 µM | 2.17 | – | – | 1370 nM | 93.9% | 96.8% | 100.0% | 100.7% | 89.4% | 87.3% | 99.5% | 93.9% | –
COc1ccc2c(OC)c(CNCCCCCCNCc3ccc4cc(OC)ccc4c3OC)ccc2c1.CS(=O)(=O)O [TCMDC-137953] | 2 | 70.9% | 72.9% | 42.7% | 88.9% | 1870 nM | 3 | 3.73 µM | 2.26 | 35.6% | 27.7% | 1650 nM | – | – | – | – | – | – | – | – | % inhibition female (individual replicates) R3 ([2]; PfDGFA at 2µM, replicate R3): 6.7%; % inhibition female (individual replicates) R4 ([2]; PfDGFA at 2µM, replicate R4): 49.3%; HitlevelF ([2]; 2µM): 1
COc1ccc(CCNCCCCNCCc2ccc(OC)c3ccccc23)c2ccccc12.CS(=O)(=O)O [TCMDC-137961] | 3.28 | – | – | – | – | 1140 nM | – | 3.73 µM | 1.85 | – | – | 2020 nM | 90.0% | 98.7% | 95.1% | 92.4% | 83.6% | 91.7% | 93.4% | 91.7% | –
